From patent US20250304582A1, “Bicyclic Ureas As Kinase Inhibitors” (Incyte Corporation, priority 2024, published 2025)

Key:
[1] = target: T1, pseudo-kinase domain (JH2, amino-acids 536-812) of human V617F mutant JAK2 (Homo sapiens, UniProt O60674, F794H/V617F/W659A/W777A); test: JAK2 LanthaScreen JH2-V617F Binding Assay; conditions: 50 nM Fluorescent JAK2-JH2 Tracer, 1 hour at 25° C.; read-out: JH2 BIND V617F (Ex. C)
T1 construct: JH2, amino-acids 536-812 with 3 surface mutations W659A, W777A, F794H; His (C); purchased BPS Bioscience 79498; host or cells: baculovirus expression system
T1 sequence (O60674 536-812 V617F/W659A/W777A/F794H): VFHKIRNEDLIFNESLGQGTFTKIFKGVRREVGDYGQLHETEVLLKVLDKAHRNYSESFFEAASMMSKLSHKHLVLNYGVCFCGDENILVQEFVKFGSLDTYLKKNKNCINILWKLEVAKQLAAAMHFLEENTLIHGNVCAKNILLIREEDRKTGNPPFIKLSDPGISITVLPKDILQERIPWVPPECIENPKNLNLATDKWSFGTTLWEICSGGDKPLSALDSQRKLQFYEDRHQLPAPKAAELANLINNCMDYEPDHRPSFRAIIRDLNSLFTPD
Procedure: Example C. JAK2 LanthaScreen JH2-V617F Binding Assay
(§1) JAK2 JH2-V617F binding assay utilizes pseudo-kinase domain (JH2, amino-acids 536-812 with 3 surface mutations W659A, W777A, F794H) of human V617F mutant JAK2 expressed as C-terminal His-Avi-tagged, biotinylated protein in a baculovirus expression system (BPS Bioscience, Catalog #79498). The assay was conducted in black 384-well polystyrene plates in a final reaction volume of 20 μL. JAK2 JH2-V617F (0.26 nM) was incubated with compounds (100 nL serially diluted in DMSO) in the presence of 50 nM Fluorescent JAK2-JH2 Tracer (MedChem Express Catalog #HY-102055) and 0.25 nM Streptavidin-Tb cryptate (Cisbio Part #610SATLB) in assay buffer (50 mM Tris, pH=7.5, 10 mM MgCl2, 0.01% Brij-35, 0.1% BSA, 1 mM EGTA, 5% Glycerol and 5 mM DTT). Non-specific binding was accessed in the presence of 2 mM ATP. After incubation for 1 hour at 25° C., LanthaScreen signals were read on a PHERAstar FS plate reader (BMG LABTECH). Data was analyzed with IDBS Xlfit and GraphPad Prism 5.0 software using a four parameter dose response curve to determine IC50 for each compound.

[2] = target: T2, catalytic domain (JH1, amino acids 826-1132) of human JAK2 (Homo sapiens, UniProt O60674); test: JAK2 LanthaScreen JH1 Binding Assay; conditions: 50 nM fluorescent JAK2-JH1 tracer, 2 hours at 25° C.; read-out: JH1 BIND (EX. A)
T2 construct: catalytic domain (JH1, amino acids 826-1132) of human JAK2; FLAG (N); purchased Carna Biosciences 08-445-20N; host or cells: baculovirus expression system
T2 sequence (O60674 826-1132): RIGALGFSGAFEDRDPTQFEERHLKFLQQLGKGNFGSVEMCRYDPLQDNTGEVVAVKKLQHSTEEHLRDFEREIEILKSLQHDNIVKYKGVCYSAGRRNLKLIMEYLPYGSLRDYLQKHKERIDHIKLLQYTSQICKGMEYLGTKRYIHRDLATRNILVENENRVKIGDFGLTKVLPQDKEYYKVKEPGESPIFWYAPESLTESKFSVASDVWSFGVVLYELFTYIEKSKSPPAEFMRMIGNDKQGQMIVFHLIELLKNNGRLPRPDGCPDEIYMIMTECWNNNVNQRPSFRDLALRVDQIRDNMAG
Procedure: Example A. JAK2 LanthaScreen JH1 Binding Assay
JAK2 JH1 binding assay utilizes catalytic domain (JH1, amino acids 826-1132) of human JAK2 expressed as N-terminal FLAG-tagged, biotinylated protein in a baculovirus expression system (Carna Biosciences, Product #08-445-20N). The assay was conducted in black 384-well polystyrene plates in a final reaction volume of 20 μL. JAK2 JH1 (1.5 nM) was incubated with compounds (100 nL serially diluted in DMSO) in the presence of 50 nM fluorescent JAK2-JH1 tracer and 0.5 nM Streptavidin-Tb cryptate (Cisbio Part #610SATLB) in assay buffer (50 mM Tris, pH=7.5, 10 mM MgCl2, 0.01% Brij-35, 0.1% BSA, 1 mM EGTA, 5% Glycerol and 5 mM DTT). Non-specific binding was accessed in the presence of 2 mM ATP. After incubation for 2 hours at 25° C., LanthaScreen signals were read on a PHERAstar FS plate reader (BMG LABTECH). Data was analyzed with IDBS Xlfit and GraphPad Prism 5.0 software using a four parameter dose response curve to determine IC50 for each compound.

[3] = target: T3, catalytic domain (JH1, amino acids 808-1132) of human JAK2 (Homo sapiens, UniProt O60674); test: JAK2 HTRF Enzyme Activity Assay; format: biochemical; conditions: ATP (30 μM or 1 mM; not stated which for the table), 60 minutes at 25° C.; read-out: JAK2 HTRF (Ex. D)
T3 construct: catalytic domain (JH1, amino acids 808-1132) of human JAK2; His (N); purchased BPS Bioscience 40450; host or cells: baculovirus expression system
T3 sequence (O60674 808-1132): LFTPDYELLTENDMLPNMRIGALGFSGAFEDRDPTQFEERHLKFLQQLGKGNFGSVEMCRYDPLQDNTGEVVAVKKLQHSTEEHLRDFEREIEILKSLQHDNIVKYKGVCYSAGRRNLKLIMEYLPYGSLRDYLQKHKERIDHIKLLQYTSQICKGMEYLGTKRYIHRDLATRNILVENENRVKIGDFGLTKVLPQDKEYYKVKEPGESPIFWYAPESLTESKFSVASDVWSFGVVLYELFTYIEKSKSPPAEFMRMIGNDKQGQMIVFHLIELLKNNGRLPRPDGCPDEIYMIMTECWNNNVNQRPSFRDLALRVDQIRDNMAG
Procedure: Example D. JAK2 HTRF Enzyme Activity Assay
JAK2 enzyme activity assays utilize catalytic domain (JH1, amino acids 808-1132) of human JAK2 expressed as N-terminal His-tagged protein in a baculovirus expression system (BPS Bioscience, Catalog #40450). The assays was conducted in black 384-well polystyrene plates in a final reaction volume of 20 μL. JAK2 (0.015 nM) was incubated with compounds (100 nL serially diluted in DMSO) in the presence of ATP (30 μM or 1 mM) and 500 nM Biotin-labeled EQEDEPEGDYFEWLE (SEQ ID NO.: 1) peptide (BioSource International, custom synthesis) in assay buffer (50 mM Tris, pH=7.5, 10 mM MgCl2, 0.01% Brij-35, 0.1% BSA, 1 mM EGTA, 5% Glycerol and 5 mM DTT) for 60 minutes at 25° C. The reactions were stopped by the addition of 10 μL of detection buffer (50 mM Tris, pH 7.8, 0.5 mg/mL BSA, 150 mM NaCl), supplemented with EDTA, LANCE Eu-W1024 anti-phosphotyrosine (PY20), (PerkinElmer, Catalog #AD0067) and Streptavidin SureLight APC (PerkinElmer Catalog #CR130-100), for a final concentration of 15 mM, 1.5 nM and 75 nM, respectively. HTRF signals were read after 30 minutes incubation at room temperature on a PHERAstar FS plate reader (BMG LABTECH). Data was analyzed with TDBS Xlfit and GraphPad Prism 5.0 software using a four parameter dose response curve to determine IC50 for each compound.

[4] = target: T4, pseudo-kinase domain (JH2, amino-acids 536-812) of human Wild Type JAK2 (Homo sapiens, UniProt O60674, F794H/W659A/W777A); test: JAK2 LanthaScreen JH2-WT Binding Assay; conditions: 50 nM Fluorescent JAK2-JH2 Tracer, 1 hour at 25° C.; read-out: JH2 BIND WT (EX. B)
T4 construct: JH2, amino-acids 536-812 with 3 surface mutations W659A, W777A, F794H; His (C); purchased BPS Bioscience 79463; host or cells: baculovirus expression system
T4 sequence (O60674 536-812 W659A/W777A/F794H): as the sequence (O60674 536-812 V617F/W659A/W777A/F794H) above, with F82V counted along it
Procedure: Example B. JAK2 LanthaScreen JH2-WT Binding Assay
as §1, with “JH2-WT” for “JH2-V617F”, “Wild Type” for “V617F mutant”, “#79463).” for “#79498).”, “JH2-WT (0.145” for “JH2-V617F (0.26”

Row | SMILES | IC50 [1] | IC50 [2] | IC50 [3] | IC50 [4]
1 | [2H]C([2H])([2H])n1c(=O)n([C@@H]2CC[C@@H](NC(=O)OC)C2)c2cc(Nc3cc(CO)c4cccc(C(F)(F)F)c4n3)ncc21 [Example 1, Methyl ((1R,3R)-3-(6-((4-(hydroxymethyl)-8-(trifluoromethyl)quinolin-2-yl)amino)-3-(methyl-d3)-2-oxo-2,3-dihydro-1H-imidazo[4,5-c]pyridin-1-yl)cyclopentyl)carbamate] | ≤ 0.01 µM | > 1 µM | > 1 µM | ≤ 0.01 µM
2 | [2H]C([2H])([2H])n1c(=O)n([C@@H]2CC[C@@H](NC(=O)OC)C2)c2cc(Nc3cc(C(C)O)c4cccc(C(F)(F)F)c4n3)ncc21 (stereo partly drawn) [Example 2, Methyl ((1R,3R)-3-(6-((4-(1-hydroxyethyl)-8-(trifluoromethyl)quinolin-2-yl)amino)-3-(methyl-d3)-2-oxo-2,3-dihydro-1H-imidazo[4,5-c]pyridin-1-yl)cyclopentyl)carbamate] | ≤ 0.01 µM | > 1 µM | > 1 µM | ≤ 0.01 µM
3 | [2H]C([2H])([2H])n1c(=O)n([C@@H]2CC[C@]([2H])(NC(=O)OC)C2)c2cc(Nc3cc(C(C)(C)O)c4cccc(C(F)(F)F)c4n3)ncc21 [Example 11, Methyl ((1S,3R)-3-(6-((4-(2-hydroxypropan-2-yl)-8-(trifluoromethyl)quinolin-2-yl)amino)-3-(methyl-d3)-2-oxo-2,3-dihydro-1H-imidazo[4,5-c]pyridin-1-yl)cyclopentyl-1-d)carbamate] | ≤ 0.01 µM |  | > 1 µM | 
4 | [2H]C([2H])([2H])n1c(=O)n([C@@H]2CC[C@@]([2H])(NC(=O)OC)C2)c2cc(Nc3cc(C(C)(C)O)c4cccc(C(F)(F)F)c4n3)ncc21 [Example 12, Methyl ((1R,3R)-3-(6-((4-(2-hydroxypropan-2-yl)-8-(trifluoromethyl)quinolin-2-yl)amino)-3-(methyl-d3)-2-oxo-2,3-dihydro-1H-imidazo[4,5-c]pyridin-1-yl)cyclopentyl-1-d)carbamate] | ≤ 0.01 µM |  | > 1 µM | 
5 | [2H]C([2H])([2H])n1c(=O)n([C@@H]2CC[C@](C)(NC(=O)OC)C2)c2cc(Nc3cc(C(C)(C)O)c4cccc(C(F)(F)F)c4n3)ncc21 [Example 13, Methyl ((1S,3R)-3-(6-((4-(2-hydroxypropan-2-yl)-8-(trifluoromethyl)quinolin-2-yl)amino)-3-(methyl-d3)-2-oxo-2,3-dihydro-1H-imidazo[4,5-c]pyridin-1-yl)-1-methylcyclopentyl)carbamate] | ≤ 0.01 µM |  | > 1 µM | 
6 | [2H]C([2H])([2H])n1c(=O)n([C@@H]2CC[C@](C)(NC(=O)OCCOC)C2)c2cc(Nc3cc(C(C)(C)O)c4cccc(C(F)(F)F)c4n3)ncc21 [Example 14, 2-Methoxyethyl ((1S,3R)-3-(6-((4-(2-hydroxypropan-2-yl)-8-(trifluoromethyl)quinolin-2-yl)amino)-3-(methyl-d3)-2-oxo-2,3-dihydro-1H-imidazo[4,5-c]pyridin-1-yl)-1-methylcyclopentyl)carbamate] | ≤ 0.01 µM |  | > 1 µM | 
7 | [2H]C([2H])([2H])n1c(=O)n(C23CCC(NC(=O)OC)(C2)C3)c2cc(Nc3cc(C(C)(C)O)c4cccc(C(F)(F)F)c4n3)ncc21 [Example 32, Methyl (4-(6-((4-(2-hydroxypropan-2-yl)-8-(trifluoromethyl)quinolin-2-yl)amino)-3-(methyl-d3)-2-oxo-2,3-dihydro-1H-imidazo[4,5-c]pyridin-1-yl)bicyclo[2.1.1]hexan-1-yl)carbamate] | ≤ 0.01 µM |  | > 1 µM | 
8 | [2H]C([2H])([2H])n1c(=O)n(C23CC(NC(=O)OC)(C2)C3)c2cc(Nc3ccc4cccc(C(F)(F)F)c4n3)ncc21 [Example 33, Methyl (3-(3-(methyl-d3)-2-oxo-6-((8-(trifluoromethyl)quinolin-2-yl)amino)-2,3-dihydro-1H-imidazo[4,5-c]pyridin-1-yl)bicyclo[1.1.1]pentan-1-yl)carbamate] | 0.01 to 0.1 µM |  | > 1 µM | 
9 | [2H]C([2H])([2H])n1c(=O)n([C@@H]2CC[C@@H](NC(=O)OC)C2)c2cc(Nc3cc(C(C)(C)O)c4cccc(C(C)(C)C#N)c4n3)ncc21 [Example 34, Methyl ((1R,3R)-3-(6-((8-(2-cyanopropan-2-yl)-4-(2-hydroxypropan-2-yl)quinolin-2-yl)amino)-3-(methyl-d3)-2-oxo-2,3-dihydro-1H-imidazo[4,5-c]pyridin-1-yl)cyclopentyl)carbamate] | 0.01 to 0.1 µM |  | > 1 µM | 
10 | [2H]C([2H])([2H])n1c(=O)n([C@@H]2CC[C@@]([2H])(NC(=O)OC)C2)c2cc(Nc3cc(C)c4nc(C)c(I)n4n3)ncc21 [Example 46, Methyl ((1R,3R)-3-(6-((3-iodo-2,8-dimethylimidazo[1,2-b]pyridazin-6-yl)amino)-3-(methyl-d3)-2-oxo-2,3-dihydro-1H-imidazo[4,5-c]pyridin-1-yl)cyclopentyl-1-d)carbamate] | ≤ 0.01 µM |  | > 1 µM | 
